This is an account of results in ChEMBL document CHEMBL1828508, “Biphenyl-3-yl alkylcarbamates as fatty acid amide hydrolase (FAAH) inhibitors: steric effects of N-alkyl chain on rat plasma and liver stability” (Eur J Med Chem, 2011).

Structures are written as SMILES.

Data set [1] can be described thus: Chemical stability of the compound in 0.01 M borate buffer assessed as half life at pH 9.0 by HPLC analysis. The class given is physicochemical. The conditions noted are these: for t1/2: buffer; for half-life: 0.01 M borate buffer.
Data set [2] concerns Plasma. Kind of data set: (§1) Metabolic stability of the compound in Wistar rat plasma assessed as half life at 1 uM by RP-HPLC analysis. The conditions noted are these: 1 µM. The data set is classed as ADME, cell-free.
A short description of data set [3]: Chemical stability of the compound in 0.01 M PBS assessed as compound remaining at pH 7.4 by HPLC analysis. The conditions noted are these: buffer.
In data set [4] the test system is Liver. Kind of data set: (§2) Metabolic stability of the compound in Wistar rat liver S9 fraction assessed as half life at 1 uM by RP-HPLC analysis. The data set is classed as ADME, subcellular. The conditions noted are these: s9, 1 µM.
A short description of data set [5]: Metabolic stability of the compound in Wistar rat liver S9 fraction at 1 uM measured after 90 mins by RP-HPLC analysis. The class given is ADME, subcellular. The settings on record: read-out: Stability.
Data set [6] deals with Plasma. Kind of data set: Hydrolytic rate constant, log k of the compound in Wistar rat plasma. The data set is classed as ADME, cell-free.
Data set [7] is described as follows: Chemical stability of the compound in 0.01 M borate buffer assessed as half life at 300 nM and pH 9.0 by HPLC analysis. The data set is classed as physicochemical.
Data set [8] is described as follows: Chemical stability of the compound in 0.01 M borate buffer assessed as half life at 100 nM and pH 9.0 by HPLC analysis. The class given is physicochemical.
Data set [9] can be described thus: Chemical stability of the compound in 0.01 M borate buffer assessed as half life at 1 uM and pH 9.0 by HPLC analysis. The data set is classed as physicochemical.
Data set [10] has as its system Liver. The experiment in a line: Hydrolytic rate constant, log k of the compound in Wistar rat liver S9 fraction. The data set is classed as ADME, subcellular.
The nature of data set [11]: as §1. The class given is ADME, cell-free. The conditions noted are these: Wistar.
In the next data set the test system is Rattus norvegicus. Kind of data set: In vivo displacement of [3H]-anandamide from rat brain FAAH after 30 mins by scintillation counting. The data set is classed as functional. The settings on record: read-out: ID50 (the source's name).
Data set [12] can be described thus: as §2. The class given is ADME, subcellular. The settings on record: Wistar, liver S9 fraction.
Data set [13] addresses T1, Fatty-acid amide hydrolase 1 (Rattus norvegicus, UniProt P97612).
T1 sequence (P97612 whole entry): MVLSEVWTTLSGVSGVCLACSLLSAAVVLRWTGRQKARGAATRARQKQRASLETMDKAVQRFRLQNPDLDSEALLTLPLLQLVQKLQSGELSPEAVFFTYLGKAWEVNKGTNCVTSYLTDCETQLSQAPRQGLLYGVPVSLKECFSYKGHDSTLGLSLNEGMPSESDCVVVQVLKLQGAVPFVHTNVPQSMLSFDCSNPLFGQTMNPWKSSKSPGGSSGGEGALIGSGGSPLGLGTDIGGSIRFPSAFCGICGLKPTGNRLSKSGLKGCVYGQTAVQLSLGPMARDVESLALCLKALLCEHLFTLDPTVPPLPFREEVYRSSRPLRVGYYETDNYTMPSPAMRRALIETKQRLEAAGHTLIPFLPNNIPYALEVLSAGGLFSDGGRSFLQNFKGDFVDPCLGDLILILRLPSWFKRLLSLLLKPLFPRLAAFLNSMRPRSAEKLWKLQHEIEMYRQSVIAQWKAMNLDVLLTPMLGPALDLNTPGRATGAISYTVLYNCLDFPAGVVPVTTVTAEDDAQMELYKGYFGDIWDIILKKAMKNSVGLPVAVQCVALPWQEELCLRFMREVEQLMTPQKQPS
Kind of data set: Displacement of [3H]-anandamide from rat brain FAAH after 30 mins by scintillation counting. In general terms: Displacement assays read how much labelled ligand stays bound in the presence of the test substance.

Data set [14] concerns the target T2, Fatty-acid amide hydrolase 1 (Rattus norvegicus) (UniProt P97612).
T2 sequence (whole entry): T1 sequence (P97612 whole entry)
The experiment in a line: Selectivity index, ratio URB524 pIC50 to compound pIC50 for displacement of [3H]-anandamide from rat brain FAAH after 30 mins by scintillation counting.

For `NC(=O)c1cccc(-c2cccc(OC(=O)NCc3ccc4ccccc4c3)c2)c1`, the t1/2 is reported as 13.9 min in [1], 5.6 min in the data set on Plasma [2] and 39 min with Liver [4]. Further, the Stability in data set [3] is recorded as 22.8%.
For orientation: half-life means the time needed for the level to fall by half in the phase considered. In the case of `O=C(NC12CC3CC(CC(C3)C1)C2)Oc1cccc(-c2ccccc2)c1`, in data set [5], the remaining at 1.5 h, 1 µM was 99.2%. In the data set on Plasma [6], the Activity is given as -2.42. For the same compound, the t1/2 with Plasma [2] came out at 183.3 min. Besides, the half-life at 0.3 µM in [7] is 262 min. Besides, the half-life at 0.1 µM in data set [8] is 264 min. Moreover, the half-life at 1 µM in [9] was found to be 266 min. The Stability in [3] came to 66.7%.
Consider `O=C(NC1CCC1)Oc1cccc(-c2ccccc2)c1`, for which the Activity is -0.56 in the data set on Liver [10] and -1.46 in the data set with Plasma [6]. Further, the t1/2 is 27.5 min in data set [1], 19.9 min in the data set on Plasma [2] and 2.5 min in the data set with Liver [4]. Moreover, the Stability in data set [3] was 22.6%.
For the compound `O=C(NCc1cccc2ccccc12)Oc1cccc(-c2ccccc2)c1`, the Activity with Liver [10] was -1.83; in the data set with Plasma [6], -1.03. In addition, the t1/2 in [1] came out at 38.7 min; with Plasma [2], 7.3 min; with Liver [4] it was 46.8 min. Also, the Stability in data set [3] was 24.8%.
Turning to `O=C(NC1CCCCC1)Oc1cccc(-c2ccccc2)c1`, the Activity in the data set on Liver [10] is recorded as -0.94; in the data set on Plasma [6], -1.79. Further, the half-life in [1] came out at 40.7 min. Besides, the half-life at 1 µM in data set [11] is 42.7 min; in data set [9] it was 40.4 min; in [12], 6 min. Moreover, the half-life at 0.3 µM in data set [7] was 42.7 min. Moreover, the half-life at 0.1 µM in data set [8] was found to be 42.3 min. Besides, the Stability in data set [3] stood at 41.1%. Also, the ED50 with Rattus norvegicus worked out at 0.81 mg/kg.
In the case of `CNC(=O)Oc1cccc(-c2ccccc2)c1`, the figures for the Activity in the data set on Liver [10] and in the data set on Plasma [6] were -1.03 and -0.74, respectively. The t1/2 in data set [1] stood at 43.8 min; in the data set with Plasma [2] it was 3.8 min; in the data set on Liver [4] it was 7.4 min. In [3], the Stability is 33.9%.
In general, pIC50 refers to the IC50 on a negative log10 scale, so that one unit is a factor of ten. Turning to `NC(=O)c1cccc(-c2cccc(OC(=O)NCCCCc3ccccc3)c2)c1`, the t1/2 in [1] turned out to be 30.3 min; in the data set with Plasma [2], 4.2 min; in the data set on Liver [4], 46.9 min. In addition, the pIC50 in data set [13] is 9.48. Moreover, the Stability in [3] amounted to 18.8%.
For `O=C(NCCCCCCN1CCOCC1)Oc1cccc(-c2ccccc2)c1`, the figures for the Activity with Liver [10] and in the data set on Plasma [6] were -1.27 and -1.06, respectively. In addition, the t1/2 in data set [1] stood at 33.4 min; in the data set with Plasma [2], 8 min; in the data set with Liver [4], 13 min. Moreover, the Stability in data set [3] turned out to be 30.9%.
For the compound `O=C(NCC1CCCCC1)Oc1cccc(-c2ccccc2)c1`, the Activity with Liver [10] is on record as -1.15; in the data set with Plasma [6], -1.35. For the same compound, the results for the t1/2 (in [1]; in the data set with Plasma [2]; in the data set on Liver [4]) were 104.8 min, 15.3 min and 9.8 min, respectively. Moreover, in data set [3], the Stability is listed as 65.4%.
Take `CC(C)NC(=O)Oc1cccc(-c2ccccc2)c1`: the Activity with Liver [10] is reported as -0.45; with Plasma [6], -1.46. Besides, the t1/2 in data set [1] is 61.8 min; in the data set with Plasma [2], 20 min; in the data set with Liver [4], 1.9 min. Besides, the Stability in [3] is 34.6%.
Turning to `O=C(NCc1ccc2ccccc2c1)Oc1cccc(-c2ccccc2)c1`, the values for the Activity in the data set on Liver [10] and in the data set on Plasma [6] were -1.6 and -0.17, respectively. Further, the t1/2 is given as 23.9 min in [1], 1 min with Plasma [2] and 27.5 min in the data set on Liver [4]. Moreover, in [3], the Stability turned out to be 18.4%.
In the case of `O=C(NCCCCCCc1ccccc1)Oc1cccc(-c2ccccc2)c1`, the Activity in the data set with Liver [10] was -1.75; with Plasma [6], -1.08. In addition, the t1/2 is 73.8 min in [1], 8.4 min with Plasma [2] and 39.4 min with Liver [4]. Moreover, the Stability in [3] is recorded as 61.1%.
As to `NC(=O)c1cccc(-c2cccc(OC(=O)NC3CCCCC3)c2)c1` [URB-597], in data set [1], the half-life came to 33 min. Moreover, the figures for the half-life at 1 µM in data set [11] and in data set [12] were 33 min and 58.7 min, respectively. Further, the Stability in data set [3] was 40.2%.
On to `CCCCNC(=O)Oc1cccc(-c2ccccc2)c1`, for which the results for the Activity with Liver [10] and in the data set with Plasma [6] were -0.41 and -1.49, respectively. Besides, the t1/2 in data set [1] was found to be 42.9 min; with Plasma [2], 21.6 min; with Liver [4], 1.8 min. Besides, in data set [3], the Stability was 46.7%.
As to `O=C(NCCc1ccccc1)Oc1cccc(-c2ccccc2)c1`, the Activity is -0.59 in the data set with Liver [10] and -1.5 with Plasma [6]. Further, the t1/2 in data set [1] was 40 min; in the data set on Plasma [2], 22.1 min; with Liver [4] it was 2.7 min. The Stability in data set [3] was determined as 34.9%.
With `CCCCCCNC(=O)Oc1cccc(-c2ccccc2)c1`, the Activity in the data set on Liver [10] is -1.06; in the data set with Plasma [6], -1.03. Moreover, the t1/2 in [1] was found to be 68.3 min; with Plasma [2], 7.5 min; with Liver [4] it was 8 min. Further, the Stability in data set [3] was determined as 46.7%.
Regarding `O=C(NCc1ccccc1)Oc1cccc(-c2ccccc2)c1`, the Activity with Liver [10] was -1.19; in the data set with Plasma [6] it was -1.32. Also, the t1/2 in data set [1] is listed as 26.5 min; in the data set with Plasma [2], 14.3 min; in the data set with Liver [4], 10.8 min. Further, in data set [3], the Stability came out at 22.7%.
Regarding `O=C(NCCCCc1ccccc1)Oc1cccc(-c2ccccc2)c1`, the Activity with Liver [10] was -1.44; in the data set on Plasma [6], -0.98. The t1/2 is on record as 6.6 min in the data set on Plasma [2] and 19.3 min with Liver [4]. The half-life at 0.3 µM in data set [7] was 42 min. Besides, the half-life at 0.1 µM in [8] came to 41.7 min. Further, in [9], the half-life at 1 µM was 43.1 min. In data set [3], the Stability is given as 35.9%. The ED50 with Rattus norvegicus worked out at 0.96 mg/kg. The Ratio pIC50 in [14] stood at 10.
As to `O=C(NC1Cc2ccccc2C1)Oc1cccc(-c2ccccc2)c1`, the Activity in the data set on Liver [10] was -1.96; in the data set with Plasma [6] it was -1.38. Further, the values for the t1/2 (in data set [1]; in the data set on Plasma [2]; with Liver [4]) were 22.4 min, 16.5 min and 63.1 min, respectively. The Stability in data set [3] is on record as 16.2%.
In the case of `O=C(NC1CCCC1)Oc1cccc(-c2ccccc2)c1`, the Activity is on record as -0.56 with Liver [10] and -1.76 with Plasma [6]. The t1/2 in [1] is 45.1 min; in the data set with Plasma [2], 40 min; in the data set on Liver [4], 2.5 min. In addition, in data set [3], the Stability stood at 34.4%.
